Test results as given in ChEMBL document CHEMBL1201861, “Genomics of Drug Sensitity in Cancer screening data, Wellcome Trust Sanger Institute”.

Assays:
Assay in all cases: cells
OCI-AML2 = format: functional, cell-based; conditions: Homo sapiens;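 further: growth inhibition of OCI-AML2 cells, read out with a cell viability assay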
Description: SANGER: Inhibition of human OCI-AML2 cell growth in a cell viability assay.

HCC38 = format: functional, cell-based, Homo sapiens; conditions: Homo sapiens, HCC38;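 further: cell viability assay on the human HCC38 cell line, with IC50 marking the concentration that inhibits cell growth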
Description: SANGER: Inhibition of human HCC38 cell growth in a cell viability assay.

SK-UT-1 = format: functional, cell-based, Homo sapiens; conditions: Homo sapiens, SK-UT-1;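 further: growth inhibition of SK-UT-1 cells, measured by a cell viability assay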
Description: SANGER: Inhibition of human SK-UT-1 cell growth in a cell viability assay.

NB14 = format: functional, cell-based; conditions: Homo sapiens;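 further: growth inhibition of NB14 cells measured with a cell viability assay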
Description: SANGER: Inhibition of human NB14 cell growth in a cell viability assay.

ETK-1 = format: functional, cell-based, Homo sapiens; conditions: Homo sapiens, ETK-1;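 further: growth inhibition of human ETK-1 cells, read out with a cell viability assay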
Description: SANGER: Inhibition of human ETK-1 cell growth in a cell viability assay.

LS-1034 = format: functional, cell-based, Homo sapiens; conditions: Homo sapiens, LS-1034
Description: SANGER: Inhibition of human LS-1034 cell growth in a cell viability assay.

JEG-3 = format: functional, cell-based, Homo sapiens; conditions: Homo sapiens, JEG-3;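 further: growth inhibition of human JEG-3 cells, read out with a cell viability assay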
Description: SANGER: Inhibition of human JEG-3 cell growth in a cell viability assay.

K5 = format: functional, cell-based, Homo sapiens; conditions: Homo sapiens, K5
Description: SANGER: Inhibition of human K5 cell growth in a cell viability assay.

KYSE-140 = format: functional, cell-based, Homo sapiens; conditions: Homo sapiens, KYSE-140;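 further: cell viability assay measuring growth inhibition in human KYSE-140 cells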
Description: SANGER: Inhibition of human KYSE-140 cell growth in a cell viability assay.

ALL-PO = format: functional, cell-based; conditions: Homo sapiens;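 further: growth inhibition of ALL-PO cells, read out by a cell viability assay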
Description: SANGER: Inhibition of human ALL-PO cell growth in a cell viability assay.

CAL-85-1 = format: functional, cell-based; conditions: Homo sapiens;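 further: growth inhibition of human CAL-85-1 cells, read out with a cell viability assay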
Description: SANGER: Inhibition of human CAL-85-1 cell growth in a cell viability assay.

U-118-MG = format: functional, cell-based, Homo sapiens; conditions: Homo sapiens, U-118-MG
Description: SANGER: Inhibition of human U-118-MG cell growth in a cell viability assay.

OMC-1 = format: functional, cell-based, Homo sapiens; conditions: Homo sapiens, OMC-1;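 further: growth inhibition of the OMC-1 cell line, measured by a cell viability assay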
Description: SANGER: Inhibition of human OMC-1 cell growth in a cell viability assay.

COLO-320-HSR = format: functional, cell-based; conditions: Homo sapiens;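 further: growth inhibition of COLO-320-HSR cells, determined with a cell viability assay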
Description: SANGER: Inhibition of human COLO-320-HSR cell growth in a cell viability assay.

CCRF-CEM = format: functional, cell-based; conditions: Homo sapiens;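 further: inhibition of CCRF-CEM cell growth, measured by a cell viability assay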
Description: SANGER: Inhibition of human CCRF-CEM cell growth in a cell viability assay.

MDA-MB-157 = format: functional, cell-based, Homo sapiens; conditions: Homo sapiens, MDA-MB-157
Description: SANGER: Inhibition of human MDA-MB-157 cell growth in a cell viability assay.

NCI-H1355 = format: functional, cell-based, Homo sapiens; conditions: Homo sapiens, NCI-H1355;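 further: growth inhibition of human NCI-H1355 cells, read out by a cell viability assay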
Description: SANGER: Inhibition of human NCI-H1355 cell growth in a cell viability assay.

SW1783 = format: functional, cell-based; conditions: Homo sapiens;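 further: cell growth inhibition measured with a viability assay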
Description: SANGER: Inhibition of human SW1783 cell growth in a cell viability assay.

KYSE-270 = format: functional, cell-based, Homo sapiens; conditions: Homo sapiens, KYSE-270;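 further: cell growth inhibition measured with a viability assay in the human KYSE-270 line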
Description: SANGER: Inhibition of human KYSE-270 cell growth in a cell viability assay.

MDA-MB-231 = format: functional, cell-based, Homo sapiens; conditions: Homo sapiens, MDA-MB-231
Description: SANGER: Inhibition of human MDA-MB-231 cell growth in a cell viability assay.

NUGC-3 = format: functional, cell-based, Homo sapiens; conditions: Homo sapiens, NUGC-3;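 further: growth inhibition of human NUGC-3 cells, read out with a cell viability assay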
Description: SANGER: Inhibition of human NUGC-3 cell growth in a cell viability assay.

UMUC3 = format: functional, cell-based, Homo sapiens; conditions: Homo sapiens, UMUC3;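 further: growth inhibition of human UM-UC-3 cells, read out with a cell viability assay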
Description: SANGER: Inhibition of human UM-UC-3 cell growth in a cell viability assay.

NCI-H596 = format: functional, cell-based, Homo sapiens; conditions: Homo sapiens, NCI-H596;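 further: growth inhibition of NCI-H596 cells, read out with a cell viability assay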
Description: SANGER: Inhibition of human NCI-H596 cell growth in a cell viability assay.

RERF-LC-MS = format: functional, cell-based, Homo sapiens; conditions: Homo sapiens, RERF-LC-MS;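 further: growth inhibition of human RERF-LC-MS cells, read out by a cell viability assay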
Description: SANGER: Inhibition of human RERF-LC-MS cell growth in a cell viability assay.

TK-10 = format: functional, cell-based, Homo sapiens; conditions: Homo sapiens, TK-10;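 further: growth inhibition of TK-10 cells, read out in a cell viability assay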
Description: SANGER: Inhibition of human TK10 cell growth in a cell viability assay.

GI-1 = format: functional, cell-based, Homo sapiens; conditions: Homo sapiens, GI-1;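 further: growth inhibition of human GI-1 cells, measured with a cell viability readout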
Description: SANGER: Inhibition of human GI-1 cell growth in a cell viability assay.

HSC-3 = format: functional, cell-based, Homo sapiens; conditions: Homo sapiens, HSC-3
Description: SANGER: Inhibition of human HSC-3 cell growth in a cell viability assay.

RPMI-7951 = format: functional, cell-based, Homo sapiens; conditions: Homo sapiens, RPMI-7951
Description: SANGER: Inhibition of human RPMI-7951 cell growth in a cell viability assay.

BB30-HNC = format: functional, cell-based, Homo sapiens; conditions: Homo sapiens, BB30-HNC;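 further: growth inhibition of the cultured cell line, read out by a cell viability assay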
Description: SANGER: Inhibition of human BB30-HNC cell growth in a cell viability assay.

COLO-824 = format: functional, cell-based, Homo sapiens; conditions: Homo sapiens, COLO-824
Description: SANGER: Inhibition of human COLO-824 cell growth in a cell viability assay.

SCC-15 = format: functional, cell-based, Homo sapiens; conditions: Homo sapiens, SCC-15;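 further: growth inhibition of SCC-15 cells, read out with a cell viability assay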
Description: SANGER: Inhibition of human SCC-15 cell growth in a cell viability assay.

ATN-1 = format: functional, cell-based; conditions: Homo sapiens;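 further: growth inhibition of human ATN-1 cells, read out with a cell viability assay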
Description: SANGER: Inhibition of human ATN-1 cell growth in a cell viability assay.

UO-31 = format: functional, cell-based; conditions: Homo sapiens;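 further: cell viability assay measuring inhibition of cell growth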
Description: SANGER: Inhibition of human U031 cell growth in a cell viability assay.

EKVX = format: functional, cell-based, Homo sapiens; conditions: Homo sapiens, EKVX;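 further: growth inhibition of human EKVX cells, read out with a cell viability assay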
Description: SANGER: Inhibition of human EKVX cell growth in a cell viability assay.

COLO-668 = format: functional, cell-based, Homo sapiens; conditions: Homo sapiens, COLO-668
Description: SANGER: Inhibition of human COLO-668 cell growth in a cell viability assay.

COLO-684 = format: functional, cell-based; conditions: Homo sapiens
Description: SANGER: Inhibition of human COLO-684 cell growth in a cell viability assay.

TE-8 = format: functional, cell-based, Homo sapiens; conditions: Homo sapiens, TE-8;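 further: growth inhibition of TE-8 cells, measured with a cell viability readout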
Description: SANGER: Inhibition of human TE-8 cell growth in a cell viability assay.

SiHa = format: functional, cell-based, Homo sapiens; conditions: Homo sapiens, SiHa;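 further: Viability-based readout of growth inhibition in SiHa cells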
Description: SANGER: Inhibition of human SiHa cell growth in a cell viability assay.

HCC1187 = format: functional, cell-based, Homo sapiens; conditions: Homo sapiens, HCC1187;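 further: growth inhibition of HCC1187 cells, read out with a cell viability assay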
Description: SANGER: Inhibition of human HCC1187 cell growth in a cell viability assay.

NB69 = format: functional, cell-based, Homo sapiens; conditions: Homo sapiens, NB69;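 further: growth inhibition of NB69 cells, determined by a cell viability assay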
Description: SANGER: Inhibition of human NB69 cell growth in a cell viability assay.

SK-LU-1 = format: functional, cell-based, Homo sapiens; conditions: Homo sapiens, SK-LU-1;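 further: cell viability assay measuring growth inhibition of human SK-LU-1 cells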
Description: SANGER: Inhibition of human SK-LU-1 cell growth in a cell viability assay.

T84 = format: functional, cell-based, Homo sapiens; conditions: Homo sapiens, T84;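 further: growth inhibition measured with a cell viability readout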
Description: SANGER: Inhibition of human T84 cell growth in a cell viability assay.

NCI-H1304 = format: functional, cell-based; conditions: Homo sapiens;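 further: growth inhibition of the cancer cell line, measured in a cell viability assay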
Description: SANGER: Inhibition of human NCI-H1304 cell growth in a cell viability assay.

NCI-H292 = format: functional, cell-based, Homo sapiens; conditions: Homo sapiens, NCI-H292;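 further: growth inhibition of NCI-H292 cells, read out with a cell viability assay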
Description: SANGER: Inhibition of human NCI-H292 cell growth in a cell viability assay.

SW626 = format: functional, cell-based, Homo sapiens; conditions: Homo sapiens, SW626;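 further: growth inhibition of SW626 cells, measured with a cell viability assay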
Description: SANGER: Inhibition of human SW626 cell growth in a cell viability assay.

SK-PN-DW = format: functional, cell-based; conditions: Homo sapiens;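 further: growth inhibition measured with a viability assay on these cells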
Description: SANGER: Inhibition of human SK-PN-DW cell growth in a cell viability assay.

SW948 = format: functional, cell-based, Homo sapiens; conditions: Homo sapiens, SW948;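 further: growth inhibition of SW948 cells, read out with a cell viability assay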
Description: SANGER: Inhibition of human SW948 cell growth in a cell viability assay.

NB13 = format: functional, cell-based, Homo sapiens; conditions: Homo sapiens, NB13;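 further: cell viability readout measuring growth inhibition of human NB13 cells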
Description: SANGER: Inhibition of human NB13 cell growth in a cell viability assay.

MEL-HO = format: functional, cell-based, Homo sapiens; conditions: Homo sapiens, MEL-HO
Description: SANGER: Inhibition of human MEL-HO cell growth in a cell viability assay.

Measured: IC50

O=c1cc(-c2cccc3c2Sc2ccccc2S3)oc(N2CCOCC2)c1 [KU-55933]
> 10 µM: all assays above
